Patent US6812034B2, “Fetuin-MGP-mineral complex in serum assayed to determine calcification risk” (The Regents of the University of California, priority 2000, dated 2004)

Legend:
[1] = test system: arotinoid-induced bone resorption; conditions: relative antiresorption potency in the rat, etidronate = 1; cited from earlier work
[2] = test system: aorta calcification in rats treated with vitamin D plus warfarin; assay: von Kossa staining for calcification in rats treated with vitamin D plus warfarin; type: in vivo, rat; conditions: 84 h; for Histology Score Observer #1 x ± S.D. / Histology Score Observer #2 x ± S.D.: score 0-5
Procedure: For measurement of mineral accumulation in arteries, each tissue was removed within 30 minutes of death and immediately frozen. Tissues were subsequently washed extensively with buffer and extracted with 1 ml of 10% formic acid for 24 h at room temperature, as described. Calcium levels in serum were determined colorimetrically using cresolphthalein complexone (Sigma) and phosphate levels in serum and in acid tissue extracts were determined calorimetrically as described (Zhu et al. (1994) Cardiology, 85: 370-377). Tissue sectioning and staining were carried out by Biomedical Testing Services, Inc., (San Diego, Calif.).
Male Sprague Dawley rats were fed ad libitum with rodent diet 5001 (Purina Mills Inc., St. Louis, Mo.), a diet that is 0.67% phosphorus and 0.95% calcium by weight. This diet contains 500 μg per kg of phylloquinone and has no added menadione. In all experiments, animals were killed by exsanguination while under metofane anesthetic, and selected tissues were removed immediately and fixed in 10% buffered formalin or frozen at −20° C. for later studies. All animal experiments were approved by the UCSD animal subjects committee.

[3] = serum levels of calcium, phosphate, MGP and BGP after subcutaneous bisphosphonate; type: in vivo, rat; conditions: for Ionic calcium / total calcium: 8 mg/100 g
Procedure: Rats were fed rodent diet 5001 (Purina Mills Inc., St. […] Etidronate was dissolved with 0.15 M NaCl, titrated to pH 7.4 with dilute NaOH, and administered subcutaneously to forty-day-old male rats. Control animals received injections of 0.15 M NaCl only. […] At the times indicated in FIG. 1, each rat was anesthetized with metofane and a 400 μl sample of blood was withdrawn from the jugular vein. Blood samples were allowed to clot for 15 min at room temperature and serum was obtained after centrifugation in a clinical centrifuge and then frozen rapidly on dry ice and stored at -70° C. until later analysis. The same procedure was followed for the second time course experiment (FIG. 10), with the difference that the etidronate dose was increased to 32 mg per 100 g body weight. […] Two hours later, all rats were injected with etidronate at a dose of 8 mg/100 g (t=0), and 400 μl of blood were removed from each animal at the indicated times for biochemical analyses. […] In neither control group could we detect a significant change in serum levels of calcium, phosphate, or MGP at any time point. […] Rice et al. (1994) J. Bone Min. Res. 9: 567-576). Calcium levels in serum and other samples were determined colorimetrically using cresolphthalein complexone (Sigma) and phosphate levels in serum, effluent fractions, and other samples were determined calorimetrically as described (Chen et al. (1956) Anal. Chem. 28(11): 1756-1758). For determination of ionic calcium, freshly obtained blood samples were immediately placed into a 2.5 ml gold top vacutainer tube to avoid out gassing of CO2 and the associated shift in pH. […] Electrophoresis was carried out using 4 to 20% polyacrylamide gels (Novex, Inc., San Diego, Calif.) run in Tris-glycine buffer containing SDS. Protein sequencing was carried out on bands transferred to PVDF membranes using a Procise 494 Sequencer (ABI division, PE Biosystems, Foster City, Calif.).

What does the source list for `CC(O)(P(=O)(O)O)P(=O)(O)O` [Etidronate, (1-hydroxyethylylidene)-bisphosphonate]?
Bone Resorption Relative potency [1]: 1; Histology Score Observer #1 x ± S.D. ([2]; 0.25 mg P/kg/day sc): 3.5 ± 1.3; Histology Score Observer #2 x ± S.D. ([2]; 0.25 mg P/kg/day sc): 4.5 ± 1.0; Histology Score Observer #1 x ± S.D. ([2]; 1.25 mg P/kg/day sc): 1.8 ± 2.4; Histology Score Observer #2 x ± S.D. ([2]; 1.25 mg P/kg/day sc): 2.0 ± 2.4; Histology Score Observer #1 x ± S.D. ([2]; 6.25 mg P/kg/day sc): 0.3 ± 0.5; Histology Score Observer #2 x ± S.D. ([2]; 6.25 mg P/kg/day sc): 0.1 ± 0.3; extent of von Kossa staining in the abdominal aorta ([2]; 6.25 mg P/kg/day, highest dose tested): significantly reduced; increase in serum calcium, phosphate and MGP compared with the 8 mg/100 g dose ([3]; 4 mg/100 g body weight, 6 h, data not shown): smaller increase; elevation of serum calcium ([3]; 8 mg/100 g body weight sc): 1.8 fold; elevation of serum phosphate ([3]; 8 mg/100 g body weight sc): 1.6 fold; serum MGP ([3]; 8 mg/100 g body weight sc): 12 µg/mL; serum calcium ([3]; 8 mg/100 g body weight sc): 4.3 mM; serum phosphate ([3]; 8 mg/100 g body weight sc): 5.6 mM; time at which serum mineral complex reaches maximal levels ([3]; 8 mg/100 g sc): 6 h; time by which serum mineral complex is cleared from serum ([3]; 8 mg/100 g sc): ≤ 24 h; time of peak level of MGP ([3]; 8 mg/100 g sc): 6 h; time of peak serum BGP level ([3]; 8 mg/100 g sc): 1 h; time to half of maximal serum MGP levels ([3]; 8 mg/100 g sc): 3 h; time to half of maximal serum calcium and phosphate levels ([3]; 8 mg/100 g sc): 1 h; phosphate above control levels ([3]; 8 mg/100 g sc, by 6 h): 59%; total calcium above control levels ([3]; 8 mg/100 g sc, by 6 h): 76%; maximum elevation of serum BGP ([3]; 8 mg/100 g sc, data not shown): 3 fold; Ionic calcium ([3]; 1 h): 1.47 ± 0.04 mM; total calcium ([3]; 1 h): 3.45 ± 0.34 mM; Ionic calcium ([3]; 2 h): 1.51 ± 0.04 mM; total calcium ([3]; 2 h): 4.05 ± 0.44 mM; Ionic calcium ([3]; 6 h): 1.46 ± 0.03 mM; total calcium ([3]; 6 h): 4.41 ± 0.43 mM; time of maximal level in serum total calcium, phosphate and MGP ([3]; 32 mg/100 g sc): 6 to 9 h; level of serum ionized calcium ([3]; 32 mg/100 g sc, 6 h): no increase; serum levels of total calcium, phosphate and MGP ([3]; 32 mg/100 g sc, 24 h): remained substantially elevated; increase in serum MGP levels ([3]; 32 mg/100 g, within 6 h): 36 fold; increase in serum phosphate levels ([3]; 32 mg/100 g, within 6 h): 2.5 fold; serum MGP ([3]; 32 mg/100 g, within 6 h): 18 µg/mL; serum phosphate ([3]; 32 mg/100 g, within 6 h): 8.6 mM; total serum calcium ([3]; 32 mg/100 g, within 6 h): 8.8 mM
